# Results taken from article PMC9643649, “Engineering Enzyme Substrate Scope Complementarity for Promiscuous Cascade Synthesis of 1,2‐Amino Alcohols” (Angewandte Chemie (International Ed. in English), 2022).
# Molecular target: T1, RgnTDC (Mediterraneibacter gnavus, UniProt A7B1V0)
# T1 construct: gene RUMGNA_01526; recombinant, purified; construct details only in the supplement
# Assay: decarboxylation turnover assay of purified enzyme
# Format: biochemical
# Details: native substrate
smiles,measurement,value
N[C@@H](Cc1c[nH]c2ccccc12)C(=O)O [Trp],decarboxylation turnover assay of purified enzyme,we observed only a slight decrease in activity on Trp and Phe
